Literature values, collected in US20110053874A1, “USE OF FLAVONOIDE COMPOUNDS FOR THE PROPHYLAXIS AND THERAPY OF ISCHAEMIC OR INFLAMMATORY HEART AND CARDIOVASCULAR DISEASES” (BOEHRINGER INGELHEIM INTERNATIONAL GMBH, priority 2008, published 2011).

How the values were obtained:
[1] = in vivo
[2] = human, oral

SMILES	absorption [1]	form present in the plasma after being taken orally and absorbed through the intestine [2]
O=c1c(O)c(-c2ccc(O)c(O)c2)oc2cc(O)cc(O)c12 [Quercetin]	only absorbed to a small extent	–
O=c1c(O[C@@H]2O[C@H](CO)[C@@H](O)[C@H](O)[C@H]2O)c(-c2ccc(O)cc2)oc2cc(O)cc(O)c12 [kaempferol glucoside, kaempferol-3-O-β-D-glucoside]	–	almost completely in the form of their respective glucuronides
O=c1c(O[C@@H]2O[C@H](CO)[C@@H](O)[C@H](O)[C@H]2O)c(-c2ccc(O)c(O)c2)oc2cc(O)cc(O)c12 [quercetin glucoside, quercetin-3-O-β-D-glucoside]	–	almost completely in the form of their respective glucuronides
